Measured values as given in patent US20260364184A1, “COMPOUND BASED ON OXOISOINDOLINYL-SUBSTITUTED TETRAHYDROPYRIMIDINE-DIONE AND USE THEREOF” (GLUETACS THERAPEUTICS (SHANGHAI) CO., LTD., priority 2023, published 2026).

What was measured:
[1] = biological target: T1, EZH2 (Homo sapiens, UniProt Q15910+Q96SW2); experiment: Western blot degradation of EZH2; assay type: cell-based; settings: hPBMC Cell; 24 hours
T1 construct: expression of target proteins in cells; endogenous in cells
Description: Conventional Western blot assay was performed to evaluate the effects of the compounds of the present disclosure on the expression of target proteins in cells.
(1) Cell Seeding and Protein Harvesting: The selected cells were processed according to the cell seeding procedure and protein harvesting procedure in Table II-2.
(2) To the collected supernatant, 5×SDS sample loading buffer was added, followed by denaturation at 95 °C for 5 minutes. The denatured samples were then separated by SDS-PAGE electrophoresis on a polyacrylamide gel. Proteins were transferred to a nitrocellulose membrane (0.45 μm NC membrane), blocked with blocking buffer at room temperature for 1 hour, and subjected to antibody incubation and development procedures according to the antibody manufacturer's instructions (Cell Signaling Technology).
Half-Maximal Degradation Concentration value (the drug concentration required for degrading proteins by 50%, abbreviated as DC50) reads method: comparing the grayscale values of Western blot bands from drug-treated samples with those from blank DMSO-treated controls, and identifying the drug concentration range at which the grayscale value is half that of the DMSO-treated control bands.
DC50 values can be calculated using ImageJ software to measure grayscale values of Western blot bands from drug-treated samples. The concentration-response curve is fitted to estimate the drug concentration corresponding to half the grayscale value.
Target protein remaining (%) refers to the percentage of target protein remaining in cells after treatment with protein degrader compounds.
Calculation method for target protein remaining (%): Use ImageJ software to measure grayscale values of Western blot bands from drug (protein degrader)-treated samples. The grayscale value of drug-treated bands is divided by that of internal control protein bands, and the resulting quotient is normalized to obtain the relative percentage of remaining target protein after protein degrader treatment.
Target protein degradation rate (%)=1−target protein remaining (%).

[2] = system: Human neuroblastoma cell line (SK-N-AS); experiment: Inhibition of SK-N-AS cell proliferation (CellTiter luminescent viability); assay type: cell-based; settings: Table II2, EZH2 inhibitor-based, 96 hours; for inhibition at 0.01 µM: 10 nM, read-out: Inhibition Rate at 10 nM (%); for inhibition at 0.5 µM: 500 nM, read-out: Inhibition Rate at 500 nM (%)
[3] = system: Human malignant melanoma cell line (A375); experiment: Inhibition of A375 cell proliferation (CellTiter luminescent viability); settings: A-375, Table III (II1), EZH2 inhibitor-based, 96 hours; for inhibition at 0.01 µM: A375, 10 nM, read-out: Inhibition Rate at 10 nM (%); for inhibition at 0.5 µM: A375, 500 nM, read-out: Inhibition Rate at 500 nM (%)
Description: (§1) The tumor cells used herein were cultured in a cell culture medium listed in table 3 at 37 °C in an incubator with 5% CO2. Prior to experimentation, all cell lines used were correctly identified by STR profiling, and tested negative for mycoplasma contamination using a mycoplasma detection kit through routine screenings.
(§2) The IC50 values of the compounds of the present disclosure (including the compounds in Table 1, Table 2, and Examples 1-468) were determined using the CellTiter-Meiluncell Luminescent Cell Viability Assay Kit from Dalian Meilun Biotech Co., Ltd. The detailed procedure is as follows: Tumor cells were seeded in 96-well cell culture plates at the densities specified in Table 4. On the following day, the test compounds of the present disclosure were subjected to serial dilution. The dilution can be performed according to one of the following two methods: • (1) The first dilution method: The test compounds of the present disclosure (including the compounds in Table 1, Table 2, and Examples 1-468) were subjected to 5-fold serial dilutions starting from a highest concentration of 2000 μM, resulting in a total of 9 concentrations from high to low (2000, 400, 80, 16, 3.2, 0.64, 0.128, 0.0256, 0.00512 μM). Subsequently, 0.5 μL of the test compound dilution was transferred into the 96-well plate containing the cells, with each well containing 100 μL of cell culture medium. […] Into the 96-well plate, the diluted test compounds and corresponding detection reagents were added, resulting in final test compound concentrations of 500 nM and 10 nM, respectively. The experimental procedure is described below using the diluted 2 μM test compound as an example.
(§3) 0.5 μL of the aforementioned diluted compound of the present disclosure (including the compounds in Table 1, Table 2, and Examples 1-468) was added to the seeded cells in 100 μL of medium, yielding a final test compound concentration of 10 nM. After the cells were treated with the compounds of the present disclosure for a specified period, the cell viability assay reagent was added to the culture medium according to the kit's instructions to determine cell viability. […] All controls were treated using the same procedure as the compounds of the present disclosure. The growth inhibition curves for the compounds of the present disclosure were plotted using Prism GraphPad software, and the IC50 values were calculated therefrom.

[4] = system: Human large cell immunoblastic lymphoma cell line SR; experiment: Inhibition of SR cell proliferation (CellTiter luminescent viability); assay type: cell-based; settings: Table IA1, IRAK4 inhibitor-based, 96 hours, read-out: Inhibitory activity (IC50, nM) on tumor cell proliferation, SR
Method in brief: (§4)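 IC50 is fitted from luminescent viability (CellTiter-Meiluncell) curves. Nine-point, 5-fold dilution series (top stock 2000 μM) are added at 0.5 μL per 100 μL medium to cells plated the day before, with growth at 37 °C and 5% CO2.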

[5] = system: Human gastric cancer cell line MGC803; experiment: Inhibition of MGC803 tumor cell proliferation (CellTiter luminescent viability); assay type: cell-based; settings: Table IA1, IRAK4 inhibitor-based compounds; MGC803, 96 hours; read-out: Inhibitory activity (IC50, nM) on tumor cell proliferation, MGC803
Description: as §1, §2, §3

[6] = biological target: T2, IRAK4 (Homo sapiens, UniProt Q9NWZ3); experiment: Western blot degradation of IRAK4; assay type: cell-based; settings: hPBMC Cell; 24 hours
T2 construct: expression of target proteins in cells; endogenous in cells
T2 sequence (Q9NWZ3 1-460): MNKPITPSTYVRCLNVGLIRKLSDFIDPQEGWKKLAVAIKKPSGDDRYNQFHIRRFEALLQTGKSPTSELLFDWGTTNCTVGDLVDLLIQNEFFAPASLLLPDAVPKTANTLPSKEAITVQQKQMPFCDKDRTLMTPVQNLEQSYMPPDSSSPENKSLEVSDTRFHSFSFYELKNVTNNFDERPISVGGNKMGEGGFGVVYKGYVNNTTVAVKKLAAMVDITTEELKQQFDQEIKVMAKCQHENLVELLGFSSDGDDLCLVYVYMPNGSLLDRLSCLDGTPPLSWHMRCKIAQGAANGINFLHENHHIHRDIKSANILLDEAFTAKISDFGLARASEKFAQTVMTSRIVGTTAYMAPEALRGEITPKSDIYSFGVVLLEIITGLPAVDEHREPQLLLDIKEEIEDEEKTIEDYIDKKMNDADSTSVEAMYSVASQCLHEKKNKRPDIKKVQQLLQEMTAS
Method in brief: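 Cells treated with compound, lysed, and target protein detected by Western blot (SDS-PAGE, nitrocellulose transfer). DC50 taken as the concentration giving band grayscale half that of DMSO control, estimated by concentration-response fitting; remaining protein (%) from target band normalised to internal control band; degradation (%) = 1 − remaining.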

[7] = system: Human Multiple myeloma cell line (MM.1S); experiment: Inhibition of MM.1S cell proliferation (CellTiter luminescent viability); assay type: cell-based; settings: Table IA1, IRAK4 inhibitor-based, 96 hours, read-out: Inhibitory activity (IC50, nM) on tumor cell proliferation, MM.1S
Method in brief: as §4

[8] = system: Human T lymphocytic leukemia cell line (Jurkat); experiment: Inhibition of Jurkat cell proliferation (CellTiter luminescent viability); assay type: cell-based; settings: Table IA1, IRAK4 inhibitor-based, 96 hours, read-out: Inhibitory activity (IC50, nM) on tumor cell proliferation, Jurkat
[9] = system: JEKO-1; experiment: Inhibition of JEKO-1 cell proliferation (CellTiter luminescent viability); assay type: cell-based, human; settings: Table IA1, IRAK4 inhibitor-based; JEKO-1, 96 hours; read-out: Inhibitory activity (IC50, nM) on tumor cell proliferation, JEKO-1
Description: as §1, §2, §3

T1 sequence (Q15910 whole entry): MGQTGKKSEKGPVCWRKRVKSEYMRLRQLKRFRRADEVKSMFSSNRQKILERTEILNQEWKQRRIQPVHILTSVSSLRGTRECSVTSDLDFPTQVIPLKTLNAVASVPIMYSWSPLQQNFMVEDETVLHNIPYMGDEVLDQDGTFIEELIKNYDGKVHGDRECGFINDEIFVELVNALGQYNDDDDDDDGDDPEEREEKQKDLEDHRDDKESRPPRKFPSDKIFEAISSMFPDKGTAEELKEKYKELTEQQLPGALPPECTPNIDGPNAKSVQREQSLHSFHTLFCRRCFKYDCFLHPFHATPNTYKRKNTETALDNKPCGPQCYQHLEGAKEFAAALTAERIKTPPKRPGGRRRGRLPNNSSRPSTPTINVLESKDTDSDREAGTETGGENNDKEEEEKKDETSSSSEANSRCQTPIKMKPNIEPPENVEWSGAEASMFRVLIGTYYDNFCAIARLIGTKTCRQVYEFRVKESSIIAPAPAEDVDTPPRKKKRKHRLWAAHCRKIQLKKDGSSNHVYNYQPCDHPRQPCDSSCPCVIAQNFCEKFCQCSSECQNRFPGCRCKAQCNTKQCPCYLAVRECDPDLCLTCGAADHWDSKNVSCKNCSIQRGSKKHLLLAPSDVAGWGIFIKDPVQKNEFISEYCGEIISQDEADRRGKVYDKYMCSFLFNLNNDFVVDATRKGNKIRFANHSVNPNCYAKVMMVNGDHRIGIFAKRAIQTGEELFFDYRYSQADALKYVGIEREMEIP
T1 sequence (O75530 whole entry partner): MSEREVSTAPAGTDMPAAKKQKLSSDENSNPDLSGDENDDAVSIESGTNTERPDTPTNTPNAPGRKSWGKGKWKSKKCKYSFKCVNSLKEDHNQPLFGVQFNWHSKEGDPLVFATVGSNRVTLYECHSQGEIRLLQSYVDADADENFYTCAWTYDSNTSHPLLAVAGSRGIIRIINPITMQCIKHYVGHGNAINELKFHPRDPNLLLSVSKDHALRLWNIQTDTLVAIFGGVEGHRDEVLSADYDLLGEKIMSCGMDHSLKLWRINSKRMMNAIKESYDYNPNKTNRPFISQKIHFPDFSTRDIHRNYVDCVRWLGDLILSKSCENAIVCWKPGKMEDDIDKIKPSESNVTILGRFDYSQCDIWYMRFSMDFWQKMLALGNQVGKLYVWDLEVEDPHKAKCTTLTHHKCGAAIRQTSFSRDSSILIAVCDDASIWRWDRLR
T1 sequence (Q15022 whole entry partner): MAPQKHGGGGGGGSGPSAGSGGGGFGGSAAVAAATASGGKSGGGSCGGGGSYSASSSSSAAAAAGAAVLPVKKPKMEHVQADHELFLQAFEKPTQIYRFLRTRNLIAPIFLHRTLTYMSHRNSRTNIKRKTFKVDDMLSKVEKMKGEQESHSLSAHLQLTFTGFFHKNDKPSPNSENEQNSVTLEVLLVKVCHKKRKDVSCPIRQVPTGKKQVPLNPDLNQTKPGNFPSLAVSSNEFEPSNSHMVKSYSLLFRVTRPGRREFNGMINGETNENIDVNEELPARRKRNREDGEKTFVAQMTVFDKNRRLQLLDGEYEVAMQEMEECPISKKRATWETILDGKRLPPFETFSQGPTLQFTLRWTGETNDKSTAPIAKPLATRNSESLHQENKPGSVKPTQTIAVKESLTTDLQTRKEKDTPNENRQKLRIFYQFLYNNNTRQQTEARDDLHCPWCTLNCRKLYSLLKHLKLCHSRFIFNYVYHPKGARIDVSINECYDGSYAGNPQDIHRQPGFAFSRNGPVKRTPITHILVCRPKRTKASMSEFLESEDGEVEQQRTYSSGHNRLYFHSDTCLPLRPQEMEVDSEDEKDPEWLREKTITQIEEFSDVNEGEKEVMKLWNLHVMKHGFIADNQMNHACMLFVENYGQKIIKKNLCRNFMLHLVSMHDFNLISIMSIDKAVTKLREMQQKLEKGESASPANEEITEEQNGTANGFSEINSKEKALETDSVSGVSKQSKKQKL
T1 sequence (Q96SW2 whole entry): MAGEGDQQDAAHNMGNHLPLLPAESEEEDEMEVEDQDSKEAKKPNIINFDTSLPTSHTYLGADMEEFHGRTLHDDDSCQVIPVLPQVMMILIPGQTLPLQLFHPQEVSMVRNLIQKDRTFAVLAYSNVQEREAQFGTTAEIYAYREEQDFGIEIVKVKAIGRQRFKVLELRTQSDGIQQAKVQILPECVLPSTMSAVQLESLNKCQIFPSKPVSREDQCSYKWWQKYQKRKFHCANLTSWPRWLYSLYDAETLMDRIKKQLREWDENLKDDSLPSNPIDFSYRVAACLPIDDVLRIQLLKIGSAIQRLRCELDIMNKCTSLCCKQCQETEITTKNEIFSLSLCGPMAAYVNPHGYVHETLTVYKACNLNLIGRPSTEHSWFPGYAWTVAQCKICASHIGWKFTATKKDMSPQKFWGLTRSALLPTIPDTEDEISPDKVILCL
T1 sequence (Q16531 whole entry partner): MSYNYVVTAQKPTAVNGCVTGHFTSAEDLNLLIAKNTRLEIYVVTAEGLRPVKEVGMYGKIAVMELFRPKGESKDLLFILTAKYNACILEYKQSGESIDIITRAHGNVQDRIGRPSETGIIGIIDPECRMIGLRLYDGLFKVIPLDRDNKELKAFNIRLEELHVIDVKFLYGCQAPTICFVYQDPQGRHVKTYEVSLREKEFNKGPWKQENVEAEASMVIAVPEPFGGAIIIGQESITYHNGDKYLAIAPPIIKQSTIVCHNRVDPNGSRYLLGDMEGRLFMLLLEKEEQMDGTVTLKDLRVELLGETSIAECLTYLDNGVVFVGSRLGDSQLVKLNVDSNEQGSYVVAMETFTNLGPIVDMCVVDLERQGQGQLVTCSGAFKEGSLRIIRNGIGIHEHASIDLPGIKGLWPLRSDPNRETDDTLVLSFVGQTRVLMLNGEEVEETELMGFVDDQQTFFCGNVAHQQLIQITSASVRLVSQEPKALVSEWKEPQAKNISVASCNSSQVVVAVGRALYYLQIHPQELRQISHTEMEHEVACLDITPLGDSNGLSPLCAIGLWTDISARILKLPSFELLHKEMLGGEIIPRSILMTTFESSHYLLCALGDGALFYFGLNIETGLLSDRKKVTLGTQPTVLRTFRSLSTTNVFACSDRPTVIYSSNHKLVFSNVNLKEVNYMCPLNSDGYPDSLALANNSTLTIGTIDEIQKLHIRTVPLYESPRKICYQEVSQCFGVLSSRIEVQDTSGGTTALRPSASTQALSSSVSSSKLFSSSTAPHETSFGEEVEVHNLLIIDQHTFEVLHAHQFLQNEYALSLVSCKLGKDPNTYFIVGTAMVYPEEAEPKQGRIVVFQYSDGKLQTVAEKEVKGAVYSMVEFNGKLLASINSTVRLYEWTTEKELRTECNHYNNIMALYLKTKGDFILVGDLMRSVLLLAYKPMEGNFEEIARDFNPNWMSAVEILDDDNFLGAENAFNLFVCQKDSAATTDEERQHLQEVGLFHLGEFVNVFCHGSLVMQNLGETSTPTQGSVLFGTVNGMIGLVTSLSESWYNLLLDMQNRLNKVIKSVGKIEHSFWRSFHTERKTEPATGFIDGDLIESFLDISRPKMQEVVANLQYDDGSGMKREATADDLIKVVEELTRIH

| Structure (SMILES) | Degradation of substrate protein EZH2 (substrate protein remaining %) [1] | inhibition at 0.01 µM [2] | inhibition at 0.5 µM [2] | inhibition at 0.01 µM [3] | inhibition at 0.5 µM [3] | IC50 [4] | IC50 [5] | Degradation of substrate protein IRAK4 (substrate protein remaining %) [6] | IC50 [7] | IC50 [8] | IC50 [9] |
| --- | --- | --- | --- | --- | --- | --- | --- | --- | --- | --- | --- |
| CCN(c1cc(-c2ccc(N3CCN(C4CCN(CC5CCN(c6ccc7c(c6)C(=O)N(N6CCC(=O)NC6=O)C7=O)CC5)CC4)CC3)cc2)cc(C(=O)NCc2c(C)cc(C)[nH]c2=O)c1C)C1CCOCC1 [GT-08524, N-((4,6-dimethyl-2-oxo-1,2-dihydropyridin-3-yl)methyl)-4′-(4-(1-((1-(2-(2,4-dioxotetrahydropyrimidin-1(2H)-yl)-1,3-dioxoisoindolin-5-yl)piperidin-4-yl)methyl)piperidin-4-yl)piperazin-1-yl)-5-(ethyl(tetrahydro-2H-pyran-4-yl)amino)-4-methyl-[1,1′-biphenyl]-3-carboxamide] | A (0%≤substrate protein remaining %≤80%) | 15 to 20% | 20 to 30% |  |  |  |  |  |  |  |  |
| CCCc1cc(C)[nH]c(=O)c1CNC(=O)c1cc(-c2ccc(N3CCN(C4CCN(Cc5ccc6c(c5)C(=O)N(N5CCC(=O)NC5=O)C6=O)CC4)CC3)nc2)cc2c1cnn2C(C)C [GT-08423, 6-(6-(4-(1-((2-(2,4-dioxotetrahydropyrimidin-1(2H)-yl)-1,3-dioxoisoindolin-5-yl)methyl)piperidin-4-yl)piperazin-1-yl)pyridin-3-yl)-1-isopropyl-N-((6-methyl-2-oxo-4-propyl-1,2-dihydropyridin-3-yl)methyl)-1H-indazole-4-carboxamide] | A (0%≤substrate protein remaining %≤80%) | 20 to 30% | 40 to 50% | 20 to 30% | 30 to 40% |  |  |  |  |  |  |
| O=C1CCN(N2Cc3cc(CN4CCC(N5CCN(c6ccc7c(c6)nc(NC(=O)c6cccc(C(F)(F)F)c6)n7[C@H]6CC[C@@H](CO)CC6)CC5)CC4)ccc3C2=O)C(=O)N1 [GT-05019, N-(5-(4-(1-((2-(2,4-dioxotetrahydropyrimidin-1(2H)-yl)-1-oxoisoindolin-5-yl)methyl)piperidin-4-yl)piperazin-1-yl)-1-((1s,4s)-4-(hydroxymethyl)cyclohexyl)-1H-benzo[d]imidazol-2-yl)-3-(trifluoromethyl)benzamide] |  |  |  |  |  | 500 to 1000 nM | 500 to 1000 nM | A (0%≤substrate protein remaining %≤80%) | 500 to 1000 nM | 500 to 1000 nM | 500 to 1000 nM |
| CCCc1cc(C)[nH]c(=O)c1CNC(=O)c1cc(-c2ccc(N3CCN(C4CCN(Cc5ccc6c(c5)CN(N5CCC(=O)NC5=O)C6=O)CC4)CC3)nc2)cc2c1cnn2C(C)C [GT-08422, 6-(6-(4-(1-((2-(2,4-dioxotetrahydropyrimidin-1(2H)-yl)-1-oxoisoindolin-5-yl)methyl)piperidin-4-yl)piperazin-1-yl)pyridin-3-yl)-1-isopropyl-N-((6-methyl-2-oxo-4-propyl-1,2-dihydropyridin-3-yl)methyl)-1H-indazole-4-carboxamide] | A (0%≤substrate protein remaining %≤80%) | 5 to 10% | 20 to 30% |  |  |  |  |  |  |  |  |
| CCN(c1cc(-c2ccc(N3CCN(Cc4ccc5c(c4)CN(N4CCC(=O)NC4=O)C5=O)CC3)cc2)cc(C(=O)NCc2c(C)cc(C)[nH]c2=O)c1C)C1CCOCC1 [GT-08510, N-((4,6-dimethyl-2-oxo-1,2-dihydropyridin-3-yl)methyl)-4′-(4-((2-(2,4-dioxotetrahydropyrimidin-1(2H)-yl)-1-oxoisoindolin-5-yl)methyl)piperazin-1-yl)-5-(ethyl(tetrahydro-2H-pyran-4-yl)amino)-4-methyl-[1,1′-biphenyl]-3-carboxamide] | A (0%≤substrate protein remaining %≤80%) | 15 to 20% | 20 to 30% |  |  |  |  |  |  |  |  |
| O=C1CCN(N2Cc3cc(CN4CCN(c5ccc6c(c5)nc(NC(=O)c5cccc(C(F)(F)F)c5)n6[C@H]5CC[C@@H](CO)CC5)CC4)ccc3C2=O)C(=O)N1 [GT-04949, N-(5-(4-((2-(2,4-dioxotetrahydropyrimidin-1(2H)-yl)-1-oxoisoindolin-5-yl)methyl)piperazin-1-yl)-1-((1s,4s)-4-(hydroxymethyl)cyclohexyl)-1H-benzo[d]imidazol-2-yl)-3-(trifluoromethyl)benzamide] |  |  |  |  |  | 100 to 300 nM | 500 to 1000 nM |  | 100 to 300 nM | 500 to 1000 nM | 100 to 300 nM |
| CCCc1cc(C)[nH]c(=O)c1CNC(=O)c1cc(-c2ccc(N3CCC(N(C)Cc4ccc5c(c4)C(=O)N(N4CCC(=O)NC4=O)C5=O)CC3)nc2)cc2c1cnn2C(C)C [GT-08421, 6-(6-(4-(((2-(2,4-dioxotetrahydropyrimidin-1(2H)-yl)-1,3-dioxoisoindolin-5-yl)methyl)(methyl)amino)piperidin-1-yl)pyridin-3-yl)-1-isopropyl-N-((6-methyl-2-oxo-4-propyl-1,2-dihydropyridin-3-yl)methyl)-1H-indazole-4-carboxamide] | A (0%≤substrate protein remaining %≤80%) | 20 to 30% | 20 to 30% | 15 to 20% | 20 to 30% |  |  |  |  |  |  |
